Assay results from ChEMBL document CHEMBL4622847, “Synthesis and structure-activity relationships of thieno[2,3-d]pyrimidines as atypical protein kinase C inhibitors to control retinal vascular permeability and cytokine-induced edema” (Bioorg Med Chem, 2020).
Activity calls are given as the source filed them. The calls are words filed in the database; no cut-off is given here.

Legend:
[1] = target: T1, Protein kinase C zeta type (Homo sapiens, UniProt Q05513); test: Inhibition of recombinant full-length human aPKCzeta using CREBtide as substrate incubated for 3 hrs in presence of ATP by Kinase Glo luminescent assay
T1 sequence (Q05513 whole entry): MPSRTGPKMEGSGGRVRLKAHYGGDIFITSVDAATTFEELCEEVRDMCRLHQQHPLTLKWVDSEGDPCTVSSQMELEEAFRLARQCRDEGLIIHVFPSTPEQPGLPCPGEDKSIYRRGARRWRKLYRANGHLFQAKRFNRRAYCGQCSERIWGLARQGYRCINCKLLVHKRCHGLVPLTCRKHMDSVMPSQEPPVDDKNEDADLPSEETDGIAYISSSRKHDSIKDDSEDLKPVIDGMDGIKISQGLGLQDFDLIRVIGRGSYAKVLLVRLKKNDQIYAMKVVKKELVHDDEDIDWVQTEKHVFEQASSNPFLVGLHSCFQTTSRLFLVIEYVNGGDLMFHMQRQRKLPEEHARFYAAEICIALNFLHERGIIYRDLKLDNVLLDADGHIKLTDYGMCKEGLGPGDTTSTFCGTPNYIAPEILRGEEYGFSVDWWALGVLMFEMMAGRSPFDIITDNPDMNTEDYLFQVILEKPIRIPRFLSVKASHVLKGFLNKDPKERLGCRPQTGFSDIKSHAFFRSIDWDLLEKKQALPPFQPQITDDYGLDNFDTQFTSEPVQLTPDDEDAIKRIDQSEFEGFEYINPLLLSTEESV

Bos taurus [2] = species: Bos taurus; test: Inhibition of VEGF-induced permeability in BREC cells at 3 uM incubated for 2 hrs; assay type: functional, cell-based
[3] = Inhibition of VEGF-induced permeability in BREC cells incubated for 2 hrs; assay type: functional, cell-based, Bos taurus
Rattus norvegicus [4] = test: Inhibition of VEGF/TNFalpha-induced retinal vascular permeability in Long-Evans rat at 3 uM administered intravitreally followed by FITC-BSA, iv injection 3 hrs post drug dose and measured after 2 hrs by spectrophotometric method relative to control; assay type: functional
[5] = target: Rho-associated protein kinase 2 (Homo sapiens) (UniProt O75116); test: Inhibition of ROCK2 (unknown origin) at 5 uM by radiometric kinase assay
Chain of Rho-associated protein kinase 2 (Homo sapiens) (O75116 whole entry, looked up): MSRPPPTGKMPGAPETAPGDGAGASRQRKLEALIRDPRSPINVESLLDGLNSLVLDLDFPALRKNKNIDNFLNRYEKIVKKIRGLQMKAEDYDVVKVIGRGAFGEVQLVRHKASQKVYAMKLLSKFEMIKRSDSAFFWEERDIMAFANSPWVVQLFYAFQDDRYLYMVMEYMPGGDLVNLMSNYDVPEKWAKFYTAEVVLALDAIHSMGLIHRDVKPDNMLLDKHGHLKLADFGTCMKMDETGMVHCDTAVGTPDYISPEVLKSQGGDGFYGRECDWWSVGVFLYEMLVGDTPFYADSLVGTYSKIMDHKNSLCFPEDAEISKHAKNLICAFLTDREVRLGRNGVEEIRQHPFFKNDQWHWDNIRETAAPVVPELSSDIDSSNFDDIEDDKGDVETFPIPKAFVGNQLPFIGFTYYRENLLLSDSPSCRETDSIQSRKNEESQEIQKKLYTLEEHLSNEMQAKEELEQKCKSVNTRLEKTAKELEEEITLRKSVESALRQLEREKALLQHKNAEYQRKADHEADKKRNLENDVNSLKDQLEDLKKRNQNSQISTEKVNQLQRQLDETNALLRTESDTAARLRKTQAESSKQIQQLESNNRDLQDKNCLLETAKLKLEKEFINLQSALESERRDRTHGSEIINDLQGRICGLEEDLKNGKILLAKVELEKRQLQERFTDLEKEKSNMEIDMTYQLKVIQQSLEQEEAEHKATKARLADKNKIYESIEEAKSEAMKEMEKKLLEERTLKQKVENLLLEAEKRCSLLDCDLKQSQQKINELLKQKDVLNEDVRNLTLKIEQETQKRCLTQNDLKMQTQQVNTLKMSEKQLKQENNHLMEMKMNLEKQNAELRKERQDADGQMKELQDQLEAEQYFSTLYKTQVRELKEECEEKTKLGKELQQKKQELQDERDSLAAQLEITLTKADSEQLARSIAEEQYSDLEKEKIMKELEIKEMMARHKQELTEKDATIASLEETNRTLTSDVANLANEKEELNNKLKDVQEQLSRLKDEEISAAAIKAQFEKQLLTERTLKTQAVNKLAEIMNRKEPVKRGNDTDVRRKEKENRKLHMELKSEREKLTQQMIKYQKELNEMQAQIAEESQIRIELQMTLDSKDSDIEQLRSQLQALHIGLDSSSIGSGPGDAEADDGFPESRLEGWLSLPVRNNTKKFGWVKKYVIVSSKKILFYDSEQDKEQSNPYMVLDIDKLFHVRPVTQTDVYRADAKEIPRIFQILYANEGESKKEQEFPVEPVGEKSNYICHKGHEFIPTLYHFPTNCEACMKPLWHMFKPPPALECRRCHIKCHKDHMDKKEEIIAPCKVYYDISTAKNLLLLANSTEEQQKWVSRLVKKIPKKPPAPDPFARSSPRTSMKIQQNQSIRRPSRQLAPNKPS

[6] = Inhibition of PKA (unknown origin) by radiometric kinase assay; set-up: species or system Homo sapiens
[7] = target: Protein kinase C beta type (Homo sapiens) (UniProt P05771); test: Inhibition of PKCbeta1 (unknown origin) at 5 uM by radiometric kinase assay
Chain of Protein kinase C beta type (Homo sapiens) (P05771 2-671 limits assumed): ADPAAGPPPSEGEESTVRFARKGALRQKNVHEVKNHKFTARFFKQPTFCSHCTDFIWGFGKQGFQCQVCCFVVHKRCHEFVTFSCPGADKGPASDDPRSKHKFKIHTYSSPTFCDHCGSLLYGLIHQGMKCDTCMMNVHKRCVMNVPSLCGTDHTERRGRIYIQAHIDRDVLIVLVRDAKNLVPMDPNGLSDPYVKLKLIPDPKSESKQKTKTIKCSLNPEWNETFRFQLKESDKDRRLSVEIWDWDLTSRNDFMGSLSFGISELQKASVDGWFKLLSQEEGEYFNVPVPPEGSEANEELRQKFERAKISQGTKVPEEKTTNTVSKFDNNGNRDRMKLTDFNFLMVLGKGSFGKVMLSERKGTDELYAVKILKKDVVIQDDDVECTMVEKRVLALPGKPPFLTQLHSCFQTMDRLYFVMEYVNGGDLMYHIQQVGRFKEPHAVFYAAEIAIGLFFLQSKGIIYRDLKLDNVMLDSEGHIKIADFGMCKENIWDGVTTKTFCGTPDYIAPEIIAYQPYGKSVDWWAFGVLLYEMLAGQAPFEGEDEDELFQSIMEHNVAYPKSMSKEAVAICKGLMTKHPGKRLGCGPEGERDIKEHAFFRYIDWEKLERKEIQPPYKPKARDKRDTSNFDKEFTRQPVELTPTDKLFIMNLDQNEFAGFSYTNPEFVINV

Bos taurus [8] = species: Bos taurus; test: Inhibition of VEGF-induced permeability in BREC cells at 0.01 to 1.0 uM incubated for 2 hrs; assay type: functional, cell-based
HEK293 [9] = test: Inhibition of TNFalpha-induced NFkappaB activation in HEK293 cells at 2.5 to 10 uM preincubated for 2 hrs followed by TNFalpha stimulation by luciferase assay; assay type: cell-based; conditions: Homo sapiens
[10] = Ratio of drug level in CD-1 mouse eye to brain at 20 mg/kg, po after 4 hrs by LCMS analysis; assay type: ADME, organism-based; conditions: in vivo
[11] = target: T2, Protein kinase C iota type (Homo sapiens, UniProt P41743); test: Inhibition of recombinant full-length human aPKCiota using CREBtide as substrate incubated for 3 hrs in presence of ATP by kinase Glo luminescent assay
T2 sequence (P41743 whole entry): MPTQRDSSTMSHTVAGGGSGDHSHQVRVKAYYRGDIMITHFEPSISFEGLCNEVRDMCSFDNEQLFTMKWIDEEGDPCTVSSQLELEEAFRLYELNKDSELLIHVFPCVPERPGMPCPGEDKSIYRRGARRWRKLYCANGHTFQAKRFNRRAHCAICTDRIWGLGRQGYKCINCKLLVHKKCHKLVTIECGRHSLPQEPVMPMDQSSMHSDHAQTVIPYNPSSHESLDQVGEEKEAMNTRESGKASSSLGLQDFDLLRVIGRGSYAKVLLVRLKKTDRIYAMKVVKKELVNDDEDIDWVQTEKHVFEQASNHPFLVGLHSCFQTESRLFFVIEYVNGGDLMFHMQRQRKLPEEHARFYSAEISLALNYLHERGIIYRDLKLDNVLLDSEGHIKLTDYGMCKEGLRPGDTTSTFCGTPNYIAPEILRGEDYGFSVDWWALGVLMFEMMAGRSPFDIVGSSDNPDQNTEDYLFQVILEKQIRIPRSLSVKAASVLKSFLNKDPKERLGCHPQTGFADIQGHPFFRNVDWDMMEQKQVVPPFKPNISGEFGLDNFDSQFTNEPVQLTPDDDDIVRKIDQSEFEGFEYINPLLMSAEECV

[12] = AUC in CD1 mouse plasma at 10 mg/kg, iv measured up to 24 hrs; assay type: ADME, organism-based; set-up: dose 10 mg/kg, time < 24 hr, route intravenous; conditions: in vivo
Homo sapiens [13] = species: Homo sapiens; test: Inhibition of PKA (unknown origin) at 5 uM by radiometric kinase assay
Bos taurus [14] = species: Bos taurus; test: Inhibition of VEGF-induced permeability in BREC cells in presence of Y-27632; assay type: functional, cell-based
[15] = target: T2, Protein kinase C iota type; test: Inhibition of recombinant full-length human aPKCiota in presence of ATP at Km concentration by radiometric assay
[16] = Terminal elimination half life in CD1 mouse plasma at 10 mg/kg, iv measured up to 24 hrs; assay type: ADME, organism-based; conditions: in vivo
[17] = Ratio of drug level in CD-1 mouse brain to plasma at 10 mg/kg, iv after 4 hrs by LCMS analysis; assay type: ADME, organism-based
[18] = target: T1, Protein kinase C zeta type; test: Inhibition of recombinant full-length human aPKCzeta in presence of ATP at Km concentration by radiometric assay
[19] = Tmax in CD1 mouse plasma at 20 mg/kg, po measured up to 24 hrs; assay type: ADME, organism-based; conditions: in vivo
[20] = Ratio of drug level in CD-1 mouse eye to brain at 10 mg/kg, iv after 4 hrs by LCMS analysis; assay type: ADME, organism-based; conditions: in vivo
[21] = Terminal elimination half life in CD1 mouse plasma at 20 mg/kg, po and measured up to 24 hrs; assay type: ADME, organism-based; conditions: in vivo
[22] = Oral bioavailability in CD1 mouse plasma at 20 mg/kg measured up to 24 hrs; assay type: ADME, organism-based; conditions: in vivo
[23] = Ratio of drug level in CD-1 mouse eye to plasma at 10 mg/kg, iv after 4 hrs by LCMS analysis; assay type: ADME, organism-based
[24] = Microsomal stability in CD1 mouse liver microsomes assessed as half life at 1 uM in presence of beta-NADPH measured upto 60 mins by LC-MS/MS analysis; assay type: ADME, Microsome; conditions: 1 h
Rattus norvegicus [25] = test: Inhibition of VEGF/TNFalpha-induced retinal vascular permeability in Long-Evans rat at 1 or 3 uM administered intravitreally followed by FITC-BSA, iv injection 3 hrs post drug dose and measured after 2 hrs by spectrophotometric method; assay type: functional, organism-based
[26] = Inhibition of TNFalpha-induced NFkappaB activation in HEK293 cells preincubated for 2 hrs followed by TNFalpha stimulation by luciferase assay; assay type: cell-based; conditions: Homo sapiens
[27] = AUC in CD1 mouse plasma at 20 mg/kg, po measured up to 24 hrs; assay type: ADME, organism-based; set-up: time < 24 hr, dose 20 mg/kg, route oral; conditions: in vivo
HEK293 [28] = test: Cytotoxicity against HEK293 cells assessed as effect on cell survival by WST-1 assay; assay type: cell-based; conditions: human
Rattus norvegicus [29] = test: Effect on retinal function in overnight dark-adapted Long-Evans rat assessed as A-wave or B-wave amplitude at 3 uM administered intravitreally 3 to 5 hrs prior to exposure to a 0.1 cd.s/m2 to 10 cd.s/m2 test flash by electroretinography; assay type: ADME, organism-based; conditions: in vivo, topical_or_ocular
[30] = Drug level in iv dosed CD-1 mouse eye after 24 hrs by LCMS analysis; assay type: ADME, organism-based; conditions: read-out: Drug uptake
Homo sapiens [31] = species: Homo sapiens; test: Selectivity ratio of IC50 for inhibition of recombinant full-length human aPKCzeta using CREBtide as substrate to IC50 for of recombinant full-length human aPKCiota using CREBtide as substrate
[32] = Cmax in CD1 mouse plasma at 20 mg/kg, po measured up to 24 hrs; assay type: ADME, organism-based; set-up: dose 20 mg/kg, route oral; conditions: in vivo
[33] = target: T1, Protein kinase C zeta type; test: Inhibition of recombinant full-length human aPKCzeta expressed in Sf21 insect cells using 5FAM-ERMRPRKRQGSVRRRV-NH2 as substrate in presence of ATP after 60 mins by IMAP fluorescence polarization analysis
Bos taurus [34] = species: Bos taurus; test: Inhibition of VEGF-induced permeability in BREC cells at 1 uM incubated for 2 hrs; assay type: functional, cell-based
[35] = Cytotoxicity against […] BREC cells at 0.03 to 1 uM; assay type: cell-based
Bos taurus [36] = species: Bos taurus; test: Inhibition of VEGF-induced permeability in BREC cells at 0.01 uM incubated for 2 hrs; assay type: functional, cell-based

In the case of OC1CCN(c2nc(-c3ccncc3)nc3sc4c(c23)CCCC4)CC1, the IC50 [1] is reported as 2400 nM, the inhibition (Bos taurus [2]) is reported as “inactive” and the EC50 [3] is reported as “Not Active”.
In the case of NC1CCN(c2nc(-c3ccncc3)nc3sc4c(c23)CCCC4)CC1, the EC50 ([3]; read-out: EC50) is reported as 300 nM.
In the case of NCC1CCN(c2nc(-c3ccncc3)nc3sc4c(c23)CCCC4)CC1, the “inhibition (INH)” value (Rattus norvegicus [4]) is reported as 100%, the inhibition [5] is reported as “Active” and the IC50 [6] is reported as 500 nM. For the same molecule, the inhibition [7] was “Active”, the inhibition (Bos taurus [8]) was “Active” and the inhibition (HEK293 [9]) was “Active”. The Ratio [10] was 2, the IC50 [11] was 70 nM and the AUC [12] was 4373 ng·h/mL. For the same molecule, the inhibition (Homo sapiens [13]) was “Active”, the inhibition (Bos taurus [14]) was “Active” and the IC50 [15] was 4.08 µM. The “beta t1/2” value [16] was 2.77 h, the Ratio [17] was 2.3 and the IC50 [18] was 1640 nM. For the same molecule, the IC50 [1] was 520 nM, the Tmax [19] was 7 h and the Ratio [20] was 1.3. The “beta t1/2” value [21] was 7.83 h, the F [22] was 81.7% and the Kp at 4 h [23] was 2.9. For the same molecule, the t1/2 [24] was > 60 min, the inhibition (Rattus norvegicus [25]) was “Active” and the EC50 [26] was 6.65 µM. For the same molecule, the AUC [27] was 6762 ng·h/mL, the EC50 ([3]; read-out: EC50) was 71 nM and the Activity (HEK293 [28]) was “Non-Toxic”. For the same molecule, the Activity (Rattus norvegicus [29]) was “Non-Toxic”, the concentration at 24 h [30] was 375 ng/g and the Ratio IC50 (Homo sapiens [31]) was 7.5. The Cmax [32] was 488 ng/mL.
In the case of CN1CCN(c2nc(-c3ccncc3)nc3sc4c(c23)CCCC4)CC1, the IC50 [33] is reported as 3.7 µM.
Work on CN(C)C1CCN(c2nc(-c3ccncc3)nc3sc4c(c23)CCCC4)CC1 yielded an EC50 ([3]; read-out: EC50) of 300 nM.
For c1cc(-c2cc(N3CCNCC3)c3c4c(sc3n2)CCCC4)ccn1, the inhibition (Bos taurus [34]) was “inactive”, the IC50 [1] was 1150 nM and the EC50 [3] was “Not Active”.
c1cc(-c2nc(NCCN3CCNCC3)c3c4c(sc3n2)CCCC4)ccn1 gave an IC50 [1] of 11100 nM.
NCCN1CCN(c2nc(-c3ccncc3)nc3sc4c(c23)CCCC4)CC1 gave an IC50 [1] of 420 nM.
With c1cc(-c2nc(N3CCNCC3)c3c4c(sc3n2)CCCC4)ccn1 the Activity [35] was “Toxic”, the inhibition (Bos taurus [34]) was “inactive” and the EC50 [3] was “Not Active”. The inhibition (Bos taurus [36]) was “inactive”.
